Earlier results on six compounds are cited in patent US6541487B1, “PDE III inhibitors for treating sexual dysfunction” (R.T. Alamo Ventures I, LLC, priority 1998, dated 2003).

The subject of data set [1] is corpus cavernosum. As to conditions: intracavernosal injection; severe atherosclerosis not involved.
The conditions of data set [2]: for priapism: treatment of impotence.
For data set [3] the following is noted: following oral administration.
Data set [4] concerns plasma high density lipoprotein cholesterol. The following applies: in vivo.
The test system of data set [5] is platelet aggregation.
For data set [6], the system named is PDE III.
The subject of data set [7] is coronary vascular smooth muscle tissue.
Assay in data set [8]: not given
This is another data set of the same source.

In the case of `COc1ccc(Cc2nccc3cc(OC)c(OC)cc23)cc1OC` [papaverine], the “erection after injection into a corpus cavernosum” value (“erection” below) in data set [1] was “erection sufficient for vaginal penetration”. In addition, the priapism result in data set [2] was “often results in priapism”.
Consider `O=C1CCc2cc(OCCCCc3nnnn3C3CCCCC3)ccc2N1` [cilostazol, 6-[4-(1-cyclohexyl-5-tetrazoyl)butoxy]-1,2,3,4-tetrahydro-2-oxoquinoline], for which the “time of peak plasma concentrations of cilostazol” value in data set [3] was 2 to 4 h. For the same compound, in data set [4], the “plasma high density lipoprotein cholesterol” value was “increasing”. Further, the platelet aggregation result in [5] is on record as “suppresses”.
For the compound `CCCc1nn(C)c2c(=O)[nH]c(-c3cc(S(=O)(=O)N4CCN(C)CC4)ccc3OCC)nc12` [Sildenafil], the “inhibition of PDE III” value in data set [6] is listed as “negligible inhibition”. In [7], the “cyclic AMP levels” value is “no change” and the “cyclic GMP levels” value was “selectively increases”.
In the case of `CC(COc1ccccc1)N(CCCl)Cc1ccccc1` (stereo not drawn) [phenoxybenzamine], in [1], the “erection” value is “erection sufficient for vaginal penetration”. Moreover, the carcinogenicity result in data set [2] (in vivo) is “carcinogen”. Moreover, the priapism entry in data set [2] is reported as “often results in priapism”.
For the compound `Cn1cc([S+](C)[O-])c(=O)c2ccc(F)cc21` (stereo not drawn) [flosequinan, 7-fluoro-1-methyl-3-methylsulphinyl-4-quinolone], the “solubility in organic solvents” value is “soluble in many organic solvents” and the solubility in water entry was “water soluble”. For the same compound, the “inhibition of PDE III” value in data set [6] is recorded as “selective inhibitor”. Further, the “time of peak plasma concentrations of flosequinan” value in [8] (following oral administration) was 1 to 2 h. Moreover, the “time of peak metabolite plasma levels” value in [8] (following oral dosage, metabolite of flosequinan) is “about seven”. Moreover, the mean absolute bioavailability in data set [8] (oral, single dose per day of 50 milligrams or 75 milligrams) is given as 72%.
For the compound `Cc1ccc(N(CC2=NCCN2)c2cccc(O)c2)cc1` [phentolamine], in data set [1], the “erection” value is “erection sufficient for vaginal penetration”.
